Reference: patent US12110523B2, “Reagents and methods for esterification” (Wisconsin Alumni Research Foundation, priority 2015, dated 2024)

What was measured:
RNase A = biological target: T1, RNase A (Bos taurus, UniProt P61823); settings: at 10 eq; of eleven carboxylates; cited from earlier work
T1 sequence (P61823 27-150): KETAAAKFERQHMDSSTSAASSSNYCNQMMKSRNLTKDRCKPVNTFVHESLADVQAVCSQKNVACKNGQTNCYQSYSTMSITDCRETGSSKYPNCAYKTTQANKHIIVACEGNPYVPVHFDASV

[1] = acetonitrile and acetonitrile/aqueous buffer (3:1 v/v); cited from earlier work
CHO K1 cells = test: Internalization of esterified GFP by CHO K1 cells (flow cytometry, confocal microscopy); assay type: cell-based, Chinese hamster; settings: 15 μM GFP, 37° C., 2 h, versus unlabeled GFP
Excerpt: FIG. 8 is a graph showing quantification of internalization of labeled versus unlabeled GFP by CHO K1 cells using flow cytometry measuring median fluorescence intensity. Single cells were sorted based on forward scatter-side scatter measurements, and live cells were sorted using 7AAD (7-amino-actinomycin D) stain.
FIGS. 9A-C illustrate microscopy images of uptake of esterified GFP (green) by CHO K1 cells. FIG. 9A: Not esterified. FIG. 9B: Esterified with α-diazo-4-methylphenyl-N-propargylacetamide. FIG. 9C: Esterified with α-diazo-4-methylphenyl-N,N-dimethylacetamide. Cell nuclei are stained with Hoechst 33342 (blue).
Chinese hamster ovary (CHO) K1 cells were incubated at 37° C. for 2 h in F-12K medium (which was supplemented with penicillin/streptomycin) containing either unlabeled or labeled GFP (15 μM). […] Individual cells were imaged by confocal microscopy for two of the diazo compounds.

[2] = measured in dimethylsulfoxide; cited from earlier work

Structure (SMILES)	formation of the desired ester with carboxylic acids [1]	uptake of GFP esterified with the diazo compound into CHO K1 cells (CHO K1 cells)	further results
[N-]=[N+]=C1c2ccccc2-c2ccccc21 [9-diazofluorene]	gave the desired ester in aqueous medium		average number of carboxylates labeled in RNase A (RNase A): three
CNC(=O)C(=[N+]=[N-])c1ccc(C)cc1 [Diazo compound 11, α-diazo-4-methylphenyl-N-methylacetamide]		enhanced	
Cc1ccc(C(=[N+]=[N-])C(=O)N(C)C)cc1 [Diazo compound 12, α-diazo-4-methylphenyl-N,N-dimethylacetamide]		enhanced	
CCOC(=O)C(=[N+]=[N-])C(=O)OCC [diethyl 2-diazomalonate]	unreactive		
CCOC(=O)CC(=O)OCC [diethylmalonate]			pKa [2]: 16.4
